In test [1] the target is Ba/F3-FL-EGFR-D77-N771 ins SVD (Homo sapiens, UniProt P00533, DUP768-770, cells depend on it). The test can be described thus: Cell proliferation inhibitory activity test (CellTiter-Glo), EGFR exon 20 insertion mutation. It is filed as cell-based. The following applies: 72 h, read-out: Ba/F3-FL-EGFR IC50 (nM) D77-N771ins SVD. Background: In ATP-based viability assays light output follows the ATP content of the culture.
Protocol: (§1) Cell Proliferation Inhibitory Activity Test Experiment of EGFR Exon 20 Insertion Mutation:
(§2) Cells such as Ba/F3-FL-EGFR-V769-D770 ins ASV, Ba/F3-FL-EGFR-D77-N771 ins SVD, Ba/F3-FL-EGFR-H773-V774 ins NPH, Ba/F3-FL-EGFR-A763-Y764 ins FQEA, constructed by Hefei Precedo Pharmaceuticals Co., Ltd.
(§3) 1000× compound mother liquor was prepared using DMSO, diluted to 20× final concentration using a culture medium, set aside.
(§4) Cells obtained after centrifugation were suspended with a certain amount of the culture medium and counted. The cell suspension solution was adjusted to a specified density using the culture medium, the diluted cell suspension solution was taken into a 96-well plate; 5 μl of 20× compound solution was added to each well of the 96-well plate, the content of DMSO in the final system was 0.1%; the 96-well plate was incubated for 72 h in a 5% CO2 cell incubator at 37° C.
(§5) The 96-well plate was brought to room temperature before detection, 50 μl of CellTiter-Glo® reagent was added to each well, the plate was read after being shaken for 2 minutes on a shaker and placed for 10 minutes at room temperature.
(§6) Inhibition rate (Inh %) relative to control wells processed by a solvent (DMSO) was calculated using the following equation: Inhibition rate (Inh %)=100−(RLU compound−RLU blank)/(RLU control−RLU blank)*100%

The test system of test [2] is H-1975 (EGFRL858R/T790M) cells. The test can be described thus: Cell proliferation inhibitory activity test (WST-8) of related EGFR mutations. In kind it is cell-based. The settings on record: for IC50: Homo sapiens, NCI-H1975, 72 h, cell viability, read-out: IC 50 (nM) H-1975 (EGFRL858/T790M). On the technique in general: Formazan colour is commonly taken as a measure of viable cells.
Protocol: (§7) Cell Proliferation Inhibitory Activity Test Experiments of Related EGFR Mutations: 1.
(§8) Cell culture medium: RPMI containing 10% fetal bovine serum, 5 mM HEPES, and 2 mM glutamine.
(§9) Incubated overnight in a 5% carbon dioxide incubator at 37° C.
(§10) The compound was diluted to the required concentration in the culture medium at five times the final concentration. 20 microliters of the compound diluent was transferred to a culture plate containing 80 microliters of the cells incubated overnight, and continued to be incubated for 72 hours.
(§11) After 72 hours, 10 microliters of 6 mg/ml WST8 solution dissolved in a phosphate buffer solution was added, and incubated for 3 hours in 5% carbon dioxide at 37° C. A light absorption value at 450 nm was read and subtracted by an absorption value at 650 nm.
(§12) The obtained light absorption value was used to calculate cell viability according to the following equation: Cell viability %=(OD determination value/OD drug-free cell)×100

The target of test [3] is Ba/F3-FL-EGFR-H773-V774 ins NPH (Homo sapiens, UniProt P00533, DUP771-773, cells depend on it). The test is described as follows: Cell proliferation inhibitory activity test (CellTiter-Glo), EGFR exon 20 insertion mutation. It is filed as cell-based. The following applies: 72 h, read-out: Ba/F3-FL-EGFR IC50 (nM) H773-V774ins NPH.
Protocol: as §1, §2, §3, §4, §5, §6
A further test concerns PC9 (EGFRdel19) cells. The test is described as follows: Cell proliferation inhibitory activity test (WST-8) of related EGFR mutations. It is filed as cell-based. The settings on record: for IC50: 72 h, cell viability, read-out: IC 50 (nM) PC-9 (EGFRdel19).
The target of test [4] is Ba/F3-FL-EGFR-A763-Y764 ins FQEA (Homo sapiens, UniProt P00533, INS763FQEA, cells depend on it). The test can be described thus: Cell proliferation inhibitory activity test (CellTiter-Glo), EGFR exon 20 insertion mutation. In kind it is cell-based. The following applies: 72 h, read-out: Ba/F3-FL-EGFR IC50 (nM) A763-Y764ins FQEA.
Protocol: as §1, §2, §3, §4, §5, §6
In test [5] the target is EGFR exon 20 insertion mutant kinase A763_Y764insFHEA (Homo sapiens, UniProt P00533, INS763FHEA). The test can be described thus: Kinase activity assay (33P-ATP filter-binding), EGFR exon 20 insertion mutant kinase A763_Y764insFHEA. It is filed as biochemical. The settings on record: ATP Km concentration; 10 concentrations.
Test [6] addresses T1, Ba/F3-FL-EGFR-V769-D770 ins ASV (Homo sapiens, UniProt P00533, DUP767-769, cells depend on it).
T1 construct: Ba/F3-FL-EGFR IC50 (nM) V769-D770ins ASV; other: 72 h; class symbols; Ba/F3-FL-EGFR IC50 (nM) V769-D770ins ASV
The test can be described thus: Cell proliferation inhibitory activity test (CellTiter-Glo), EGFR exon 20 insertion mutation. It is filed as cell-based. The following applies: 72 h, read-out: Ba/F3-FL-EGFR IC50 (nM) V769-D770ins ASV.
Protocol: as §1, §2, §3, §4, §5, §6

Test [7] deals with Ba/F3 (EGFRdel19/L858R/C797S) (Homo sapiens, UniProt P00533, C797S/L858R, cells depend on it, form not given). The test can be described thus: Cell proliferation inhibitory activity test (WST-8) of related EGFR mutations. The following applies: 72 h, cell viability; read-out: IC 50 (nM) Ba/F3 (EGFRdel19/L858/797s). In kind it is cell-based.
In test [8] the target is EGFR exon 20 insertion mutant kinase D770-N771insNPG (Homo sapiens, UniProt P00533, INS770NPG). The test can be described thus: Kinase activity assay (33P-ATP filter-binding), EGFR exon 20 insertion mutant kinase D770-N771insNPG. It is filed as biochemical. The following applies: ATP Km concentration; 10 concentrations.
Test [9] deals with T2, Ba/F3-FL-EGFR-V769-D770 ins ASV (Homo sapiens, UniProt P00533, cells depend on it, form not given).
T2 construct: rows headed: activity relative to the activity of TAK-788; Ba/F3-FL-EGFR
The test is described as follows: Cell proliferation inhibitory activity test (CellTiter-Glo), EGFR exon 20 insertion mutation. In kind it is cell-based. The settings on record: Ba/F3-FL-EGFR exon 20 insertion lines, see Table 6.

Where two headings read alike, the source gives them in different places.

Protocol for PC9 (EGFRdel19) cells: as §7, §8, §9, §10, §11, §12

With `C=CC(=O)Nc1cc(Nc2ncc(C(=O)OC(C)C)c(-c3cn(C)c4ccccc34)n2)c(OC)cc1N(C)CCN(C)C` [TAK788, reference compound], the GI50 in [1] is 3.9 nM; in test [3], 3.6 nM; in test [4], 3.3 nM; in test [6], 4 nM; in test [7], 2630 nM. Further, the IC50 in [2] came to 101 nM; in the test with PC9 (EGFRdel19) cells, 24.1 nM; in test [5], 4.19 nM; in [8], 0.731 nM.
As to `C=CC(=O)Nc1cc(Nc2ncc(-c3nnc(C)o3)c(-c3cn(C)c4ccccc34)n2)c(OC)cc1N(C)C1[C@H]2CN(C)C[C@@H]12` (some centres unmarked) [Example 18], the GI50 is less than 5 nM in [1] (class symbols); 2.8 nM in test [1]; less than 5 nM in test [3] (class symbols); 2.8 nM in test [3]; less than 5 nM in test [4] (class symbols); 1.8 nM in [4]. Also, the GI50 in [6] (class symbols) was less than 5 nM; in test [6] it was 1.9 nM; in test [7] it was 3980 nM. Besides, the “cytostatic activity compared with osimertinib and TAK788” value (in test [2] (H-1975 (EGFRL858/T790M)); in the test with PC9 (EGFRdel19) cells (C-9 (EGFRdel19))) was “not much different from osimertinib activity” in each case. For the same compound, the IC50 turned out to be 91.2 nM in [2] and 6.61 nM with PC9 (EGFRdel19) cells. Also, in test [9], the “activity relative to the activity of TAK-788” value is “around 2 times”.

Values taken from patent publication US12509441B2, “Compounds used as kinase inhibitors and application thereof” (TYK MEDICINES (ZHENGZHOU), INC., priority 2020, dated 2025).
